Like-named read-outs stand apart in the source and are kept apart here.
Experiments:
HCT116 [1] = experiment: GI50 by clonogenic assay; type: cell-based; conditions: Homo sapiens
Protocol: (§1) For colonogenic assay, the compounds were tested at 4 concentrations for 1 week or 2 weeks on 4 colon cancer cell lines. The compounds, concentrations, colon cancer cell line panel and end time point tested are the following: • CBG: 0 μM, 10 μM, 20 μM, 40 μM, and 80 μM. • Compound 1: 0 μM, 5 μM, 7.5 μM, 10 μM, and 20 μM. • Compound 2: 0 μM, 10 μM, 20 μM, 40 μM, and 80 μM. • Colon cancer cell line panel and end time point: SW620, HCT15, HCT116, 1 week; HT29, 2 weeks
(§2) Four colon cancer cell lines of SW620, HCT15, HT29, and HCT116 were included in the colon cancer cell line panel.
(§3) CBG, compound 1 and compound 2 were dissolved in DMSO at a concentration of 10 mM and stored at −20° C.
(§4) Evaluation of DM compounds treatment-induced growth inhibition was performed to determine the GI50 of four colon cancer cell lines with MTS assay or clonogenic assay. Each experiment was repeated in triplicate. In GraphPad Prism, data were log-transformed and fit with a nonlinear curve to calculate the GI50.
(§5) Clonogenic assay. cells were plated at 6 well plates at a density of 2,500 cells per well. After 24 hours, cells were treated with DM compounds at increasing concentrations or DMSO vehicle and incubated for 1 week or 2 weeks. Cells were then fixed and stained with 1% crystal violet (Sigma-Aldrich) solution. Quantification was performed using ImageJ. Each experiment was repeated in triplicate. In GraphPad Prism, data were log-transformed and fit with a nonlinear curve to calculate the GI50.

HCT15 = experiment: GI50 by clonogenic assay; type: cell-based; conditions: Homo sapiens
Protocol: as §1, §2, §3, §4, §5

SW620 = experiment: GI50 by clonogenic assay; type: cell-based; conditions: Homo sapiens
Protocol: as §1, §2, §3, §4, §5

HT29 = experiment: GI50 by clonogenic assay; type: cell-based; conditions: Homo sapiens
Protocol: as §1, §2, §3, §4, §5

HCT116 [2] = experiment: GI50 by MTS assay; type: cell-based; conditions: Homo sapiens, HCT-116
Protocol: For MTS assay, the compounds have been tested at 8 concentrations on 4 colon cancer cell lines for 48 hours. The compounds, concentrations and colon cancer cell line panel tested are the following: • CBG: 0 μM, 1.25 μM, 2.5 μM, 5 μM, 10 μM, 20 μM, 40 μM, and 80 μM. • Compound 1: 0 μM, 1.25 μM, 2.5 μM, 5 μM, 10 μM, 20 μM, 40 μM, and 80 μM. • Compound 2: 0 μM, 1.25 μM, 2.5 μM, 5 μM, 10 μM, 20 μM, 40 μM, and 80 μM. • Colon cancer cell line panel: SW620, HCT15, HT29, HCTl16
as §2, §3, §4
MTS assay. cells were plated at 96 well plates at a density of 1,000 cells per well. After 24 hours, cells were treated with DM compounds at increasing concentrations or DMSO vehicle and incubated for 48 hours. 20 μl of MTS reagent (Promega) was then added and incubated for 2 hours. The absorbance was measured with a microplate reader at 490 nm. Each experiment was repeated in triplicate. In GraphPad Prism, data were log-transformed and fit with a nonlinear curve to calculate the GI50.

[3] = PK study of CBG, Compound 1 and Compound 2, PO or IP; type: in vivo, male Sprague Dawley rats; conditions: CBG 30 mg/kg PO and IP; Compound 1 31.5 mg/kg PO; Compound 2 32.7 mg/kg PO
Protocol: This study evaluated the pharmacokinetics of (E)-2-(3,7-dimethylocta-2,6-dien-1-yl)-3-methoxy-5-pentylphenol (1) and (E)-2-(3,7-dimethylocta-2,6-dien-1-yl)-1,3-dimethoxy-5-pentylbenzene (2) following oral (PO) or intraperitoneal (IP) administration to male Sprague Dawley rats.
For the oral formulation the test article was added to the appropriate amount of Maisine and stirred until uniform. Next Labrasol was added to the formulation and allowed to stir until uniform. Finally, water will be slowly added to the stirring formulation to achieve the final volume.
For the IP formulation the test article was added to the appropriate amount of ethanol and stirred until uniform. Next, the appropriate amount of tween-20 was added to the stirred formulation. Finally, the appropriate amount of saline was slowly added to the stirred formulation to achieve the final volume.
Animals were fasted the evening prior to dosing with food returned at 4 h postdose, and the animals weighed on the morning of dose administration.
IP doses were administered via injection to the intraperitoneal region. PO doses were delivered into the stomach via syringe and gavage tube.
Blood was collected from via direct jugular stick or from the tail vein. Blood samples were kept on ice until being centrifuged at 3200 RPM for 10 minutes at ˜5° C. within 1 h of collection. Plasma was split into 2 cryovials in approximately equal volumes (0.05 mLs) and stored at −20° C.±5° C. until shipment.

[4] = HCT-116, 168 h, HCT116 cells, 1 week, read-out: GI50 (clonogenic assay)
[5] = HCT-116, clonogenic assay, HCT116, average of N1-N3, read-out: GI50 AVG
[6] = HCT-116, clonogenic assay, HCT116, replicate N1, read-out: GI50 N1
[7] = HCT-116, clonogenic assay, HCT116, replicate N2, read-out: GI50 N2
[8] = HCT-116, clonogenic assay, HCT116, replicate N3, read-out: GI50 N3
[9] = HCT-15, 168 h, HCT15 cells, 1 week, read-out: GI50 (clonogenic assay)
[10] = HCT-15, clonogenic assay, HCT15, average of N1-N3, read-out: GI50 AVG
[11] = HCT-15, clonogenic assay, HCT15, replicate N1, read-out: GI50 N1
[12] = HCT-15, clonogenic assay, HCT15, replicate N2, read-out: GI50 N2
[13] = HCT-15, clonogenic assay, HCT15, replicate N3, read-out: GI50 N3
[14] = SW-620, 168 h, SW620 cells, 1 week, read-out: GI50 (clonogenic assay)
[15] = SW-620, clonogenic assay, SW620, average of N1-N3, read-out: GI50 AVG
[16] = SW-620, clonogenic assay, SW620, replicate N1, read-out: GI50 N1
[17] = SW-620, clonogenic assay, SW620, replicate N2, read-out: GI50 N2
[18] = SW-620, clonogenic assay, SW620, replicate N3, read-out: GI50 N3
[19] = HT-29, 336 h, HT29 cells, 2 weeks, read-out: GI50 (clonogenic assay)
[20] = HT-29, clonogenic assay, HT29, average of N1-N3, read-out: GI50 AVG
[21] = HT-29, clonogenic assay, HT29, replicate N1, read-out: GI50 N1
[22] = HT-29, clonogenic assay, HT29, replicate N2, read-out: GI50 N2
[23] = HT-29, clonogenic assay, HT29, replicate N3, read-out: GI50 N3
[24] = HCTl116 cells, 48 hours, read-out: GI50 (MTS assay)
[25] = MTS assay, HCT116, 48 hours, replicate N1, read-out: GI50 N1
[26] = MTS assay, HCT116, 48 hours, replicate N2, read-out: GI50 N2
[27] = MTS assay, HCT116, 48 hours, replicate N3, read-out: GI50 N3

| Compound | GI50 (HCT116 [1]; [4]) | GI50 (HCT116 [1]; [5]) | GI50 (HCT116 [1]; [6]) | GI50 (HCT116 [1]; [7]) | GI50 (HCT116 [1]; [8]) | GI50 (HCT15; [9]) | GI50 (HCT15; [10]) | GI50 (HCT15; [11]) | GI50 (HCT15; [12]) | GI50 (HCT15; [13]) | GI50 (SW620; [14]) | GI50 (SW620; [15]) | GI50 (SW620; [16]) | GI50 (SW620; [17]) | GI50 (SW620; [18]) | GI50 (HT29; [19]) | GI50 (HT29; [20]) | GI50 (HT29; [21]) | GI50 (HT29; [22]) | GI50 (HT29; [23]) | further results |
| --- | --- | --- | --- | --- | --- | --- | --- | --- | --- | --- | --- | --- | --- | --- | --- | --- | --- | --- | --- | --- | --- |
| CCCCCc1cc(OC)c(C/C=C(\C)CCC=C(C)C)c(OC)c1 [Compound 2, (E)-2-(3,7-dimethylocta-2,6-dien-1-yl)-1,3-dimethoxy-5-pentylbenzene] | 43.1 ± 7.68 µM | 43.1 µM | 53.4 µM | 40.6 µM | 35.1 µM | 35.9 ± 8.95 µM | 35.9 µM | 46.2 µM | 30.5 µM | 31 µM | 41.7 ± 5.9 µM | 41.7 µM | 47.8 µM | 41.2 µM | 36 µM | 34.5 ± 14.4 µM | 34.5 µM | 51.1 µM | 25 µM | 27.3 µM | GI50 (HCT116 [2]; [24]): > 80 µM; GI50 (HCT116 [2]; [25]): > 80 µM; GI50 (HCT116 [2]; [26]): > 80 µM; GI50 (HCT116 [2]; [27]): > 80 µM; glucuronidation / glucuronide formation in plasma (in words) [3]: completely blocked glucuronide formation |
| CCCCCc1cc(O)c(C/C=C(\C)CCC=C(C)C)c(OC)c1 [Compound 1, (E)-2-(3,7-dimethylocta-2,6-dien-1-yl)-3-methoxy-5-pentylphenol] | 5.51 ± 1.51 µM | 5.51 µM | 4.79 µM | 7.61 µM | 4.12 µM | 5.03 ± 2.16 µM | 5.03 µM | 3.64 µM | 7.52 µM | 3.94 µM | 5.35 ± 1.11 µM | 5.35 µM | 5.76 µM | 4.09 µM | 6.2 µM | 2.95 ± 1.41 µM | 2.95 µM | 1.33 µM | 3.87 µM | 3.66 µM | GI50 (HCT116 [2]; [24]): 10.3 ± 0.24 µM; glucuronidation / glucuronide formation in plasma (in words) [3]: significantly reduced levels of glucuronidation compared to CBG |
| CCCCCc1cc(O)c(C/C=C(\C)CCC=C(C)C)c(O)c1 [CBG, cannabigerol] | 17.4 ± 4.91 µM | 17.4 µM | 21.1 µM | 20.7 µM | 10.5 µM | 17.4 ± 2.89 µM | 17.4 µM | 15.6 µM | 20.7 µM | 15.9 µM | 20.6 ± 1.95 µM | 20.6 µM | 18.9 µM | 22.7 µM | 20.1 µM | 9.09 ± 1.71 µM | 9.09 µM | 8.11 µM | 8.09 µM | 11.1 µM | GI50 (HCT116 [2]; [24]): 41.4 ± 1.87 µM; GI50 (HCT116 [2]; MTS assay, HCT116, 48 hours, average of N1-N3, read-out: GI50 AVG): 41.4 µM; GI50 (HCT116 [2]; [25]): 40 µM; GI50 (HCT116 [2]; [26]): 44.1 µM; GI50 (HCT116 [2]; [27]): 40.2 µM; glucuronidation / glucuronide formation in plasma (in words) [3]: converted by glucuronidation to CBG-glucoronide |
